Measurements reported in patent publication US6008239A, “Triazole derivative or salt thereof” (SSP Co., Ltd., priority 1997, dated 1999).
Values after ≈ are worked out from the molar mass of the structure shown.

Key:
[1] = system: C. albicans IFM 40009; assay: Antifungal Activity Against Candida albicans (In vivo), survival of infected mice; parameters: species or system Candida albicans in male ICR (CRJ: CD-1) mice; settings: i.v. C. albicans infection, oral 1.25 mg/kg, four times in total; for Survival days: 14 days observation, Kaplan-Meier (Cox mantel test), ***: p < 0.001, control 4.1; for Survival mice on Day 14: survivors/total on day 14, control 0/10
Experimental: Test 4: Antifungal Activity Against Candida albicans (In vivo)
After 4-week-old, male, ICR (CRJ: CD-1) mice were fasted for 6 hours, C. albicans IFM 40009 was inoculated to a tail vein of each of the mice to give an amount of 3.0×10^6 cells/mouse, whereby infection was caused. A control group consisted of 10 mice, while a medicament-administered group consisted of 5 mice. The medicament was orally administered one hour after the inoculation of the fungus and then consecutively once a day 24 hours after the inoculation, four times in total, at 1.25 mg/kg each. The survival condition during 14 days after the infection was compared. In addition, the survival days of the control group and the medicament-administered group were detected by the Kaplan-Meier method (Cox mantel test).

[2] = system: C. albicans ATCC 44859; assay: Antifungal Activity Against Candida albicans (In vitro); assay type: cell-based; settings: ATCC44859, MEM + 10% fetal bovine serum, 37° C., 24 hours, CO2 incubator, read-out: Terminal point (minimum medicament concentration permitting apparent suppression of mycerial type growth)
Experimental: Test 1: Antifungal Activity Against Candida albicans (In vitro)
They were incubated at 37° C. for 24 hours in a CO2 gas incubator. After incubation, a morphological change of C. albicans was observed under an inverted microscope. The minimum medicament concentration permitting the apparent suppression of mycerial type growth compared with that of a medicament-free control was determined as a terminal point (ng/ml).

[3] = system: A. fumigatus IFM 40808; assay: Antifungal Activity Against Aspergillus fumigatus (In vitro); assay type: cell-based; settings: IFM40808, RPMI 1640 with 0.165M MOPS, pH 7, 35° C., 24 hours
Experimental: Test 2: Antifungal Activity Against Aspergillus fumigatus (In vitro)
(§1) They were incubated at 35° C. for 24 hours. After incubation, the minimum medicament concentration permitting the apparent suppression of mycerial type growth compared with that of a medicament-free control was determined as an MIC value (μg/ml).

[4] = system: A. flavus IFM 41935; assay: Antifungal Activity Against Aspergillus flavus (In vitro); assay type: cell-based; settings: IFM41935, RPMI 1640 with 0.165M MOPS, pH 7, 35° C., 24 hours
Experimental: Test 3: Antifungal Activity Against Aspergillus flavus (In vitro)
as §1

Compound	Survival days [1] [days]	Survival mice on Day 14 [1]	MIC [2] [µg/mL]	MIC [3] [µg/mL]	MIC [4] [µg/mL]
CCOC(Cn1cncn1)(c1ccc(F)cc1F)C(F)(F)S(=O)(=O)CCO (stereo not drawn) [Example 10, 2-{[2-(2,4-Difluorophenyl)-2-ethoxy-1,1-difluoro-3-(1H-1,2,4-triazol-1-yl)propyl]sulfonyl}-1-ethanol]	13.4	4/5	–	–	–
COCCSC(F)(F)C(Cn1cncn1)(OC)c1ccc(F)cc1F (stereo not drawn) [Example 1, 1-{2-(2,4-difluorophenyl)-3,3-difluoro-2-methoxy-3-[(2-methoxyethyl)thio]propyl}-1H-1,2,4-triazole]	–	–	0.0625	64 (≈ 169 µM)	> 64
COC(Cn1cncn1)(c1ccc(F)cc1F)C(F)(F)S(=O)(=O)CCO (stereo not drawn) [Example 9, 2-{[2-(2,4-Difluorophenyl)-1,1-difluoro-2-methoxy-3-(1H-1,2,4-triazol-1-yl)propyl]sulfonyl}-1-ethanol]	14.0	5/5	–	–	–
OC(Cn1cncn1)(Cn1cncn1)c1ccc(F)cc1F [Fluconazole, reference compound]	9.6	0/5	–	> 128	> 128
COC(Cn1cncn1)(c1ccc(F)cc1F)C(F)(F)S(=O)(=O)CCOC(C)=O (stereo not drawn) [Example 12, 2-{[2-(2,4-Difluorophenyl)-1,1-difluoro-2-methoxy-3-(1H-1,2,4-triazol-1-yl)propyl]sulfonyl}ethyl acetate]	14.0	4/5	–	–	–
COCCS(=O)(=O)C(F)(F)C(Cn1cncn1)(OC)c1ccc(F)cc1F (stereo not drawn) [Example 7, 1-{2-(2,4-difluorophenyl)-3,3-difluoro-2-methoxy-3-[(2-methoxyethyl)sulfonyl]propyl}-1H-1,2,4-triazole]	14.0	5/5	–	–	–
